Measured values as given in patent US9145354B2, “Pharmaceutical compounds” (priority 2011, dated 2015).
Read-outs that look alike come from different tables or passages of the source.

Columns and labels:
[1] = tested on: HCV subgenomic replicon in Huh-7 cells; test: Replicon Assay (Example B), luciferase readout EC50; type: cell-based; details: luciferase readout, upper value of the cell pair, read-out: Assay B EC50
Experimental: The activities of compounds of the invention against HCV in a cellular environment were analysed using a replicon assay as described below.
(§1) Thus, Huh-7 cells persistently infected with an HCV-RNA construct (Bartenschlager, R. Hepatitis C replicons: potential role for drug development. Nature Rev. Drug Discov. 1, 911-916 (2002)) comprising: 5′ and 3′ non-translated regions (NTR); the non-structural genes NS3 to NS5b; as well as the G418 drug resistance gene, neomycin, (for selection of cells carrying HCV replicon RNA) fused to the firefly Luciferase reporter gene (pFKI3889Iuc-ubi-neo/NS3-3′/ET) were used to determine the cell based antiviral activity of compounds using luciferase activity as an indirect readout of HCV RNA load. In this assay […] huh-7 cells persistently infected with the HCV subgenomic replicon construct above were plated/well in a 96 well tissue culture plate. The cells were allowed to attach overnight in DMEM medium supplemented with 10% FBS 1% NEAA, and 250 μg/ml gentamicin. The following day the medium was replaced with 200 μl/well of fresh medium as described above lacking gentamicin. Semilog dilutions of compounds in medium were then added to triplicate wells (non-edge) of the cultured cells to give a 0.1% DMSO final concentration. Plates were then incubated at 37° C. in an atmosphere of 5% CO2 and air for 72 h. […] The plate was then read at 535 nm (excitation) and 590 nm (emission) on a SpectraMax Gemini reader (Molecular Devices) to determine the number of viable cells by measuring the conversion of rezasurin (Alamar blue) to resorufin in response to mitochondrial activity. In order to determine the antiviral effect of these compounds EC50 values were determined by measuring the luciferase activity of the cells. Alamar blue solution was removed from the wells and replaced with 100 μl/well of medium along with 100 μl/well of Bright-Glo reagent and incubated at room temperature for 5 minutes before transferring 100 μl/well to a white bottom 96 well plate to read in a luminometer as described in the Bright-Glo Luciferase Assay System protocol (promega).

[2] = Replicon Assay (Example B), Alamar Blue cytotoxicity CC50; type: cell-based; details: human, lower value of the cell pair
Excerpt: as §1

full length NS3/4a = full length NS3/4a (Hepatitis C virus genotype 1b (isolate BK) (HCV), UniProt P26663); test: NS3 Protease Assay (Example A), FRET-based; type: biochemical
Chain of full length NS3/4a (P26663 1027-1657): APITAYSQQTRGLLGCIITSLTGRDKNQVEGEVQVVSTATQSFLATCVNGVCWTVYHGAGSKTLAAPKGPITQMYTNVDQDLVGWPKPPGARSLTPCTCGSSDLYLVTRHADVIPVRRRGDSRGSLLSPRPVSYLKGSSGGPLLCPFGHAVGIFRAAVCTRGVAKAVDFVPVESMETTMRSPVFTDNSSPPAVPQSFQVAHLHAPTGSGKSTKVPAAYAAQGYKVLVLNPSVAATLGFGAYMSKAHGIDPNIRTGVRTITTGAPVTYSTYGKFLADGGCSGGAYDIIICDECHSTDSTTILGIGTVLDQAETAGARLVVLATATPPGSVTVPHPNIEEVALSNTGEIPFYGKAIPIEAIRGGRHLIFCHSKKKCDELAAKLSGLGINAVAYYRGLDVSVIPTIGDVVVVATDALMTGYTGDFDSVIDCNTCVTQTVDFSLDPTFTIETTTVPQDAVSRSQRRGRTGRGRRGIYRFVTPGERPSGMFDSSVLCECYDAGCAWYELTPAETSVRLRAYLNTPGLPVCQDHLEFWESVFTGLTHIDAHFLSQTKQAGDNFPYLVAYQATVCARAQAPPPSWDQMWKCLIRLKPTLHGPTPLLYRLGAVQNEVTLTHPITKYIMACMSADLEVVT
Summary of the method: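 Initial rates were taken from fluorescence progress curves over 30 min at room temperature, and IC50 was fitted across replicates. In-house full-length NS3/4a cleaved a FRET peptide (5-FAMsp/QXL520) from the NS4A/B site. Medium: 50 mM Tris pH8, 20 mM DTT, 1% CHAPS, 10% glycerol, 5% DMSO.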

[3] = HCV NS3 protease assay, full length NS3/4a, read-out: Assay A IC50 (μM) average
[4] = read-out: IC50 against the protease activity of the full length NS3/4a
[5] = Hepatitis C virus, Huh-7, replicon assay

Compound | IC50 (full length NS3/4a; [3]) | IC50 (full length NS3/4a; [4]) | EC50 [1, 5] | other results
CCC(NC1CCCC1C(N)=O)c1ccc(Cl)c(C(=O)c2ccc(N)nc2)c1F (racemic) [Example 125, 2-{[1-{3-[(6-aminopyridin-3-yl)carbonyl]-4-chloro-2-fluorophenyl}propyl]amino} cyclopentane-1-carboxamide] | – | – | – | EC50 ([1]; replicon assay): 79 nM
CCC(NC1CCCC1C(N)=O)c1ccc(Cl)c(C(=O)c2ccc(N)nc2)c1F (racemic) [Example 127, 2-{[1-{3-[(6-aminopyridin-3-yl)carbonyl]-4-chloro-2-fluorophenyl}propyl]amino} cyclopentane-1-carboxamide] | – | – | – | EC50 ([1]; replicon assay): > 10000 nM
CCC(NC1CCCC1C(N)=O)c1ccc(Cl)c(C(=O)c2ccc(N)nc2)c1F (racemic) [Example 161, 2-{[1-{3-[(6-aminopyridin-3-yl)carbonyl]-4-chloro-2-fluorophenyl}propyl]amino} cyclopentane-1-carboxamide] | – | – | – | EC50 ([1]; replicon assay): > 10000 nM
CCC(NC1CCCC1C(N)=O)c1ccc(Cl)c(C(=O)c2ccc(N)nc2)c1F (single isomer, unassigned) [Example 125, 2-{[1-{3-[(6-aminopyridin-3-yl)carbonyl]-4-chloro-2-fluorophenyl}propyl]amino} cyclopentane-1-carboxamide] | 0.29 µM | < 1 µM | – | CC50 at 72 h [2]: > 3000 nM
CC[C@@H](N)c1ccc(Cl)c(C(=O)c2ccccc2)c1F [Example 4, (1R)-1-(3-benzoyl-4-chloro-2-fluorophenyl)propan-1-amine] | 0.089 µM | < 1 µM | > 10000 nM | CC50 at 72 h [2]: > 10000 nM
CCOC(=O)c1cnn(-c2ccc(C(=O)c3c(Cl)ccc([C@H](N)CC)c3F)cn2)c1 [Example 41, ethyl 1-[5-({3-[(1R)-1-aminopropyl]-6-chloro-2-fluorophenyl}carbonyl)pyridin-2-yl]-1H-pyrazole-4-carboxylate] | 1.6 µM | 1 to 5 µM | 9 nM | –
CC[C@@H](N)c1ccc(Cl)c(C(=O)c2ccc(N)c(C#N)c2)c1F [Example 72, 2-Amino-5-[3-((R)-1-amino-propyl)-6-chloro-2-fluoro-benzoyl]-benzonitrile] | – | – | 32 nM | –
CC[C@@H](N)c1ccc(Cl)c(C(=O)c2ccc(N)c(Cl)c2)c1F [Example 74, (4-Amino-3-chloro-phenyl)-[3-((R)-1-amino-propyl)-6-chloro-2-fluoro-phenyl]-methanone] | – | – | 32 nM | –
[2H]C([2H])([2H])C([2H])([2H])[C@@H](N[C@@H](C)CC(N)=O)c1ccc(Cl)c(C(=O)c2ccc(N)c(C)c2)c1F [Example 268, (3S)-3-{[(1R)-1-{3-[(4-amino-3-methylphenyl)carbonyl]-4-chloro-2-fluorophenyl}(2,2,3,3,3-deutero)propyl]amino}-butanamide] | 0.19 µM | < 1 µM | 16 nM | –
C[C@@H](CC(=O)NCCN)NCc1ccc(Cl)c(C(=O)c2ccccc2)c1F [Example 282, (3S)—N-(2-aminoethyl)-3-{[(3-benzoyl-4-chloro-2-fluorophenyl)methyl]-amino}butanamide] | – | – | 3200 nM | inhibition at 0.01 µM (full length NS3/4a; @ 0.01 uM): 65%
CC[C@@H](NCCn1cccn1)c1ccc(Cl)c(C(=O)c2cccnc2)c1F [Example 306, [(1R)-1-{4-chloro-2-fluoro-3-[(pyridin-3-yl)carbonyl]phenyl}propyl] [2-(1H-pyrazol-1-yl)ethyl] amine] | – | – | – | inhibition at 100 µM (full length NS3/4a; @ 100 uM): 59%; IC50 (full length NS3/4a; stated as IC50 less than 30 μM or at least 40% inhibition at a concentration of 100 μM, read-out: IC50 against the protease activity of the full length NS3/4a): < 30 µM
CC[C@@H](NC)c1ccc(Cl)c(C(=O)c2ccc(N)nc2)c1F [Example 307, 5-({6-chloro-2-fluoro-3-[(1R)-1-(methylamino)propyl]-phenyl}carbonyl)pyridin-2-amine] | 0.34 µM | < 1 µM | – | –
(3S)-3-{[(1R)-1-{3-[(6- aminopyridazin-3- yl)carbonyl]-4-chloro-2- fluorophenyl}propyl]amino} butanamide [Example 232] | 0.99 µM | < 1 µM | – | –
